Results taken from the NIST ThermoML archive (doi:10.1021/acs.jced.5b00331).
± gives the expanded uncertainty stated by the source. One block for each compound: values may come before it.

Assays:
[1] = xn = mol fraction of the nth substance listed; conditions: 101 kPa, Liquid; for mass density: Vibrating tube method; for excess molar volume: Direct dilatometry
[2] = 313.15 K; 101.33 kPa; Liquid; Vibrating tube method

SMILES: CCCCCCCCCCCCCCCC [hexadecane] + C1CCCCC1
- excess molar volume ([1]; 313.15 K, x2 = 0.0083): 1.32e-08 ± 2.8e-09 m3/mol
- excess molar volume ([1]; 313.15 K, x2 = 0.03441): 5.31e-08 ± 2.9e-09 m3/mol
- excess molar volume ([1]; 313.15 K, x2 = 0.0839): 1.341e-07 ± 3.1e-09 m3/mol
- excess molar volume ([1]; 313.15 K, x2 = 0.1372): 2.074e-07 ± 3.8e-09 m3/mol
- excess molar volume ([1]; 313.15 K, x2 = 0.2221): 3.185e-07 ± 5.1e-09 m3/mol
- excess molar volume ([1]; 313.15 K, x2 = 0.3029): 4.088e-07 ± 6.6e-09 m3/mol
- excess molar volume ([1]; 313.15 K, x2 = 0.3641): 4.671e-07 ± 7.7e-09 m3/mol
- excess molar volume ([1]; 313.15 K, x2 = 0.4199): 5.136e-07 ± 8.8e-09 m3/mol
- excess molar volume ([1]; 313.15 K, x2 = 0.4911): 5.593e-07 ± 1e-08 m3/mol
- excess molar volume ([1]; 313.15 K, x2 = 0.5316): 5.779e-07 ± 9.7e-09 m3/mol
- excess molar volume ([1]; 313.15 K, x2 = 0.5632): 5.878e-07 ± 9.2e-09 m3/mol
- excess molar volume ([1]; 313.15 K, x2 = 0.59): 5.938e-07 ± 8.6e-09 m3/mol
- excess molar volume ([1]; 313.15 K, x2 = 0.6216): 5.968e-07 ± 8e-09 m3/mol
- excess molar volume ([1]; 313.15 K, x2 = 0.6527): 5.956e-07 ± 7.4e-09 m3/mol
- excess molar volume ([1]; 313.15 K, x2 = 0.6834): 5.888e-07 ± 6.9e-09 m3/mol
- excess molar volume ([1]; 313.15 K, x2 = 0.7073): 5.731e-07 ± 6.3e-09 m3/mol
- excess molar volume ([1]; 313.15 K, x2 = 0.7163): 5.728e-07 ± 6.1e-09 m3/mol
- excess molar volume ([1]; 313.15 K, x2 = 0.7223): 5.731e-07 ± 6.1e-09 m3/mol
- excess molar volume ([1]; 313.15 K, x2 = 0.7489): 5.558e-07 ± 6.1e-09 m3/mol
- excess molar volume ([1]; 313.15 K, x2 = 0.7508): 5.513e-07 ± 6.1e-09 m3/mol
- excess molar volume ([1]; 313.15 K, x2 = 0.7749): 5.318e-07 ± 5.3e-09 m3/mol
- excess molar volume ([1]; 313.15 K, x2 = 0.8022): 5.039e-07 ± 4.8e-09 m3/mol
- excess molar volume ([1]; 313.15 K, x2 = 0.8303): 4.675e-07 ± 4.5e-09 m3/mol
- excess molar volume ([1]; 313.15 K, x2 = 0.8736): 3.939e-07 ± 4e-09 m3/mol
- excess molar volume ([1]; 313.15 K, x2 = 0.8928): 3.535e-07 ± 3.9e-09 m3/mol
- excess molar volume ([1]; 313.15 K, x2 = 0.9106): 3.105e-07 ± 3.9e-09 m3/mol
- excess molar volume ([1]; 313.15 K, x2 = 0.9242): 2.747e-07 ± 4e-09 m3/mol
- excess molar volume ([1]; 313.15 K, x2 = 0.9453): 2.13e-07 ± 4e-09 m3/mol
- excess molar volume ([1]; 313.15 K, x2 = 0.9634): 1.518e-07 ± 4.4e-09 m3/mol
- excess molar volume ([1]; 313.15 K, x2 = 0.9801): 8.6e-08 ± 4.7e-09 m3/mol
- excess molar volume ([1]; 313.15 K, x2 = 0.988): 5.32e-08 ± 4.9e-09 m3/mol
- excess molar volume ([1]; 313.15 K, x2 = 0.9948): 2.3e-08 ± 5e-09 m3/mol

SMILES: CCCCCCCCCCCCCCCC [hexadecane]
- mass density [2]: 762.9 ± 0.3 kg/m3

SMILES: C1CCCCCC1 [cycloheptane] + C1CCCC1
- mass density ([1]; 313.15 K, x2 = 0.4999): 762.9 ± 0.2 kg/m3

SMILES: C1CCCCC1 [cyclohexane]
- mass density [2]: 759.8 ± 0.2 kg/m3

Next, values leading:

- mass density ([1]; 313.15 K, x2 = 0.5001): 758.9 ± 0.2 kg/m3
SMILES: CCCCCCCCCCCCCCCCCCCCCC [docosane] + CCCCCCCCCC

- mass density ([1]; 313.15 K, x2 = 0.5): 758.8 ± 0.3 kg/m3
- mass density ([1]; 315.65 K, x2 = 0.5): 757.1 ± 0.3 kg/m3
SMILES: CCCCCCCCCCCCCCCCCCCCCCCC [tetracosane] + CCCCCCCC

- mass density ([1]; 313.15 K, x2 = 0.5001): 758.4 ± 0.2 kg/m3
SMILES: CCCCCCCCCCCCCCCCCC [octadecane] + CCCCCCCCCCCCCC
